Values belong to the compound of their own block, whether it stands above or below them.
Legend:
[1] = test system: Mino cell xenograft; test: Activity test in Mino cell xenograft model; format: in vivo, NOD SCID mice; settings: for Tumor volume: end of experiment, Mean ± SD
[2] = test system: REC-1 (BTK C481S) cell xenograft; test: Activity test in REC-1 (BTK C481S) cell xenograft model; format: in vivo, BALB/c-Nude mice; settings: REC-1 (BTK C481S) xenograft; for Tumor weight: Mean ± SEM
Protocol: REC-1 (BTK C481S) cell culture (culture conditions: RPMI1640 medium+10% FBS, 37° C., 5% CO2). The cells subcultured into the logarithmic growth phase were collected and transferred into a centrifuge tube, and centrifuged at 1300 rpm for 3 min. On the day of inoculation, the cell density was adjusted to 5*10^7 cells/mL.
Cell inoculation: The inoculation site was selected at the right shoulder blade of the experimental animal, and the inoculation density was 5*10^6 cells+matrix gel/200 μL/animal.
Experimental animals: BALB/c-Nude, female, 6-8 W.
Grouped administration: When the average tumor volume reached 80-120 mm^3, the animals were randomly grouped according to tumor volume, with the coefficient of variation (CV) of tumor volumes not exceeding ⅓ of the mean volume. The day of grouping was defined as D0, and the administration began on the day of grouping. The body weight of the mice was measured before administration, and the administration was based on the body weight on that day.
Experimental observation and data collection: After cell inoculation, the effect of the tumor on the normal behavior of the animals was routinely monitored every week. Specific contents include the activity, food and water intake, weight gain or loss, eyes, fur and other abnormalities of the experimental animals. After the start of administration, the mice were weighed and dosed daily, and tumor volume was measured twice a week. The tumor volume was calculated as follows: tumor volume (mm^3)=0.52×tumor long diameter (mm)×tumor short diameter (mm)^2. At the end of the experiment, the following indicators were analyzed: tumor growth curve, mouse body weight curve, tumor weight, uniform photography of the excised tumors arranged according to groups, and calculation of tumor volume inhibition rate (TGI).
TGITV (Relative tumor volume inhibition rate) calculation formula:
[formula] • Vnt: Tumor volume of the mouse numbered n on day t; • Vn0: Tumor volume of the mouse numbered n on day 0; • RTVn: Relative tumor volume of the mouse numbered n on day t; • mean RTVtreat: RTV mean of the administration group; • mean RTVvehicle: RTV mean of the Vehicle group; • The experimental results such as tumor volume and mouse body weight of each group of animals are expressed as mean±standard error of the mean (Mean±SEM). T test was used for comparison between the two groups. One-way ANOVA was used for comparisons among three or more groups.

[3] = test system: mino cells; test: Activity test in Mino cells (CCK8 proliferation inhibition); format: cell-based; settings: Homo sapiens, 72 h, 3 days, read-out: Cell inhibition IC50
Protocol: Cell culture: mino cells (culture conditions: RPMI1640 medium+15% FBS, 37° C., 5% CO2). Cell plating: The cells subcultured into the logarithmic growth phase were collected and transferred into a centrifuge tube, and centrifuged at 800 rpm for 5 min. The cells were resuspended in complete medium and counted. The cells were diluted and adjusted to a final concentration of 200000 cells/mL. The cells were then seeded into a 96-well plate with 100 μL per well. Cell administration: Each group of drug solutions was added into the 96-well plate, 100 μL per well, n=3 for each drug concentration. Meanwhile, negative wells (n=6) and blank wells (n=3) were set up. The 96-well plate was incubated in the incubator for further 3 days. CCK8 reagent was added to the 96-well plate, 20 μL per well, and then the plate was placed in the incubator for further 4 h. The absorbance of the solution was measured at a wavelength of 450 nm using an enzyme reader. The proliferation inhibition rate was calculated and the half inhibitory concentration IC50 value was calculated.

[4] = PK test in mice; format: in vivo
Protocol: (§1) Mice were weighed and dosed, and about 50 μL of whole blood was collected from the orbital venous plexus at 5 min, 0.25 h, 0.5 h, 1 h, 2 h, 4 h, 6 h, 8 h, and 24 h after administration, using EDTA-K2 as anticoagulant. The blood samples were centrifuged at 4000 rpm for 10 min at 4° C., and 20 μL of the supernatant plasma sample was taken into an EP tube and immediately stored in a −80° C. refrigerator until analysis. 10 μL of the plasma sample was transferred to a 96-well plate and 250 μL of acetonitrile (containing internal standard) was added to precipitate proteins. The samples were centrifuged at 4000 rpm/min for 20 min in a 4° C. centrifuge. The supernatant was transferred and injected into LC MS/MS to detect the drug concentration. The data were processed by Thermo LC Quan software, and the standard curve was established using the internal standard method, with the theoretical standard curve concentration as the abscissa and the peak area ratio as the ordinate (test compound peak area/internal standard peak area). Sample concentrations were calculated using the standard curve. The pharmacokinetic parameters were calculated using WinNonlin 8.2 software.

[5] = Brain tissue distribution test in mice; format: in vivo; settings: IV 10 mg/kg; for AUC(0-inf) / AUC(0-t) / MRT / half-life: mouse; for half-life: read-out: T½ (converted)
Protocol: as §1, with “as anticoagulant. At the same time, the animals were euthanized, and the brains were removed, and the brain tissue samples were stored in a −80° C. refrigerator until analysis. The blood” for “as anticoagulant. The blood”, “concentration. The brain tissue samples were weighed and homogenized with 4 times ice-cold PBS, and 50 μL of the brain tissue homogenate was transferred to a 96-well plate. 500 μL of acetonitrile (containing internal standard) was added to precipitate the protein. The samples were centrifuged at 4000 rpm/min for 20 min in a 4° C. centrifuge. 380 μL of the supernatant was transferred to a new 96-well plate and 380 μL of 0.1% formic acid in water was added and mixed thoroughly. 10 μL of the sample was taken and injected into LC MS/MS to detect the drug concentration. The data were” for “concentration. The data were”

Bioavialibility ([4]; PO 20 mg/kg vs IV 5 mg/kg): 51.8%
AUC(0-inf) ([4]; mouse, IV 5 mg/kg, plasma): 44500 ± 4610 ng·h/mL
AUC(0-t) ([4]; mouse, IV 5 mg/kg, plasma): 42800 ± 5760 ng·h/mL
MRT ([4]; mouse, IV 5 mg/kg, plasma): 5.25 ± 0.17 h
half-life ([4]; mouse, IV 5 mg/kg, plasma): 5.35 ± 1.61 h
AUC(0-inf) ([4]; mouse, PO 20 mg/kg, plasma): 92200 ± 33200 ng·h/mL
AUC(0-t) ([4]; mouse, PO 20 mg/kg, plasma): 83500 ± 22200 ng·h/mL
Cmax ([4]; mouse, PO 20 mg/kg, plasma): 8950 ± 339 ng/mL
MRT ([4]; mouse, PO 20 mg/kg, plasma): 6.46 ± 1.4 h
half-life ([4]; mouse, PO 20 mg/kg, plasma): 6.32 ± 3.49 h
Structure (SMILES): COc1ccc(F)cc1C(=O)NCc1ccc(-c2nn(-c3ccc(N4CCN(CC5CCN(c6ccc(N7CCC(=O)NC7=O)c(C)c6)CC5)CC4)nc3)c3ncnc(N)c23)cc1 [Compound I-2, N-(4-(4-amino-1-(6-(4-((1-(4-(2,4-dioxotetrahydropyrimidin-1(2H)-yl)-3-methylphenyl)piperidin-4-yl)methyl)piperazin-1-yl)pyridin-3-yl)-1H-pyrazolo[3,4-d]pyrimidin-3-yl)benzyl)-5-fluoro-2-methoxybenzamide]
TGITV (Relative tumor volume inhibition rate) ([1]; 30 mg/kg): 80.75%
Tumor volume ([1]; 30 mg/kg): 955.81 ± 343.68 mm^3
T/C (Tweight/Cweight) ([2]; 15 mg/kg): 11.93%
Tumor weight ([2]; 15 mg/kg): 0.345 ± 0.082 g
T/C (Tweight/Cweight) ([2]; 30 mg/kg): 12.76%
Tumor weight ([2]; 30 mg/kg): 0.369 ± 0.043 g
IC50 [3]: 14 nM

B/P Ratio AUC (brain)/AUC (plasma) [5]: 6.86% ± 0.01
AUC(0-inf) ([5]; brain): 2710 ± 149 ng·h/mL
AUC(0-t) ([5]; brain): 2270 ± 126 ng·h/mL
MRT ([5]; brain): 7.17 ± 0.59 h
half-life ([5]; brain): 9.39 ± 3.04 h
AUC(0-inf) ([5]; plasma): 39800 ± 4460 ng·h/mL
AUC(0-t) ([5]; plasma): 39100 ± 5080 ng·h/mL
MRT ([5]; plasma): 4.88 ± 0.14 h
half-life ([5]; plasma): 4.44 ± 1.38 h
Structure (SMILES): COc1ccc(F)cc1C(=O)NCc1ccc(-c2nc(-c3ccc(N4CCN(CC5CCN(c6ccc(C7CCC(=O)NC7=O)cc6)CC5)CC4)cc3)n3ccnc(N)c23)cc1 (stereo not drawn) [Compound I-18]
IC50 [3]: < 25 nM

Structure (SMILES): COc1ccc(F)cc1C(=O)NCc1ccc(-c2nc(-c3ccc(N4CCN(CC5CCN(c6ccc(N7CCC(=O)NC7=O)c(C)c6)CC5)CC4)cc3)n3ccnc(N)c23)cc1 [Compound I-40]
TGITV (Relative tumor volume inhibition rate) ([1]; 30 mg/kg): 76.65%
Tumor volume ([1]; 30 mg/kg): 1146.34 ± 435.82 mm^3
IC50 [3]: < 25 nM

Structure (SMILES): COc1ccc(F)cc1C(=O)NCc1ccc(-c2nn(-c3ccc(N4CCN(CC5CCN(c6ccc7c(c6)CN(C6CCC(=O)NC6=O)C7=O)CC5)C[C@@H]4C)nc3)c3ncnc(N)c23)cc1 (stereo partly drawn) [II-38, N-(4-(4-amino-1-(6-((2S)-4-((1-(2-(2,6-dioxopiperidin-3-yl)-1-oxoisoindol-5-yl)piperidin-4-yl)methyl)-2-methylpiperazin-1-yl)pyridin-3-yl)-1H-pyrazolo[3,4-d]pyrimidin-3-yl)benzyl)-5-fluoro-2-methoxybenzamide]
IC50 [3]: < 25 nM

Structure (SMILES): COc1ccc(F)cc1C(=O)NCc1ccc(-c2nn(-c3ccc(C4CCN(CC5CCN(c6ccc7c(c6)C(=O)N(C6CCC(=O)NC6=O)C7)CC5)CC4)cc3)c(N)c2C(N)=O)cc1 (stereo not drawn) [II-39]
IC50 [3]: < 25 nM

Structure (SMILES): Nc1ncnc2c1c(-c1ccc(Oc3ccccc3)cc1)nn2-c1ccc(N2CCN(C[C@@H]3CCCC[C@H]3CN3CCN(c4ccc5c(c4)CN(C4CCC(=O)NC4=O)C5=O)CC3)CC2)nc1 (stereo partly drawn) [III-19, 3-(5-(4-(((1R,2R)-2-((4-(5-(4-amino-3-(4-phenoxyphenyl)-1H-pyrazolo[3,4-d]pyrimidin-1-yl)pyridin-2-yl)piperazin-1-yl)methyl)cyclohexyl)methyl)piperazin-1-yl)-1-oxoisoindolin-2-yl)piperidine-2,6-dione]
IC50 [3]: < 100 nM

Structure (SMILES): Cc1cc(N2CCN(C[C@@H]3CCCC[C@H]3CN3CCN(c4ccc(-n5nc(-c6ccc(Oc7ccccc7)cc6)c6c(N)ncnc65)cn4)CC3)CC2)ccc1N1CCC(=O)NC1=O [III-20, 1-(4-(4-(((1R,2R)-2-((4-(5-(4-amino-3-(4-phenoxyphenyl)-1H-pyrazolo[3,4-d]pyrimidin-1-yl)pyridin-2-yl)piperazin-1-yl)methyl)cyclohexyl)methyl)piperazin-1-yl)-2-methylphenyl)dihydropyrimidine-2,4(1H,3H)-dione]
IC50 [3]: < 500 nM

Structure (SMILES): C=CC(=O)N1CCC[C@@H](n2nc(-c3ccc(Oc4ccccc4)cc3)c3c(N)ncnc32)C1 [Ibrutinib, ibrutinib, reference compound]
TGITV (Relative tumor volume inhibition rate) ([1]; 50 mg/kg): 40.73%
Tumor volume ([1]; 50 mg/kg): 3018.11 ± 1293.65 mm^3

— US20260248784A1, “BTK Degrader and Use Thereof” (JIANGSU VCARE PHARMATECH CO., LTD., priority 2023, published 2026)
